Source: PubChem BioAssay AID493003 (Sanford-Burnham Center for Chemical Genomics, 2010)
Activity calls are given as the source filed them. No rule for the calls is given here.

Test system: S. cerevisiae tim10-1 mutant growth, luminescence
Experiment: growth inhibitors of tim10-1 mutant yeast, dose response, luminescence, S. cerevisiae, uHTS hits (AID 493003);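 also: yeast growth measured after about 22 hours at 25 °C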

SMILES | IC50
CCOC(=O)Cc1nnc2c(Nc3ccc(Cl)cc3)nc3nonc3n12 | 41.1 µM
Cn1c(N2CCOCC2)nc(-c2ccccc2)c1-c1ccccc1 | 22.9 µM
C=CCNC(=S)NNc1nc2c(c(=O)[nH]1)C1(CCCC1)Cc1ccccc1-2 | 27.7 µM
Cc1sc2ncnc(Oc3ccc(-n4ccnc4)cc3)c2c1C | 46 µM
Cc1ccc2cc3cc(C(=O)NCCCN4CCc5ccccc5C4)oc3nc2c1 | > 100 µM (inactive)
Cn1ncc2c(Nc3cccc(Cl)c3)nc(Nc3cccc(Cl)c3)nc21 | 24.4 µM
Cc1oc2c(Cl)c(Cl)c(O)c(CN(C)C)c2c1C(=O)c1ccc(Cl)cc1 | 18.6 µM
CCOC(=O)c1cnc2ccc(OC)cc2c1Nc1ccc2c(c1)OCCO2 | 79.3 µM
N/C(=N\OC(=O)c1cccc(Cl)c1)c1ccccn1 | 26.7 µM
CCOc1ccc(-n2cc(-c3ccccc3)c3c(=O)[nH]cnc32)cc1 | 14.9 µM
CCc1cccc(NC(=O)CS(=O)Cc2nc(-c3ccc(C)cc3)oc2C)c1 (stereo not given) | 27 µM
Clc1ccc(Nc2nc(C3CC3)cs2)cc1 | 39.8 µM
O=C(N/N=C/c1ccc[nH]1)c1cc(-c2ccc(Cl)cc2)nc2ccccc12 | 10.1 µM
Cc1cccc(NC(=O)c2ccc([N+](=O)[O-])s2)n1 | 6.52 µM
COc1ccc(N2CCN(C(=O)Nc3cccc(C(F)(F)F)c3)CC2)cc1 | 29.1 µM
CCOc1ccccc1N1C(=O)CC(Sc2n[nH]c(-c3ccccc3)n2)C1=O (stereo not given) | 10.6 µM
Cc1cc(NC(=O)C2CC2)ncc1NC(=O)C12CC3CC(CC(C3)C1)C2 | > 100 µM (inactive)
CCN1CCN(C(c2cccnc2)c2cc(Cl)c3cccnc3c2O)CC1 (stereo not given) | 18 µM
COc1cc2c(cc1OC)CN(C(=O)c1ccc(-c3ccccc3)cc1)CC2 | 47.3 µM
COc1ccc(Cl)cc1NC(=S)NCc1ccco1 | 16.2 µM
COc1cc(/C=N/O)ccc1Oc1ccc([N+](=O)[O-])cc1[N+](=O)[O-] | 24.4 µM
CCc1nc(C)cn1S(=O)(=O)c1cc([N+](=O)[O-])ccc1Cl | 16.8 µM
COc1ccc(Cl)cc1NC(=S)NCCc1ccc(F)cc1 | 7.09 µM

SMILES | IC50
CC1=NN(c2nc(-c3ccc(Cl)cc3)cs2)C(=O)C1 | 33.5 µM
COc1ccc(Cc2n[nH]c(=S)n2NC(=O)Nc2ccc(Cl)c(Cl)c2)cc1 | 56.5 µM
O=C(Nc1cccc(C(F)(F)F)c1)N1CCC(c2nc(-c3ccc(F)cc3)no2)CC1 | 74.7 µM
Oc1cc(-c2ccccc2)c2ccccc2c1 | 74.2 µM
CCOC(=O)N1CCN(S(=O)(=O)c2ccc3c(c2)CCN3C(=O)C2CCC2)CC1 | 34.2 µM
C=CCc1ccc(O)c(-c2ccc(O)c(CC=C)c2)c1 | 48.8 µM
Cc1cc(C)n(-c2nnc(NC34CC5CC(CC(C5)C3)C4)nn2)n1 | 46.4 µM
C=CCNC(=S)NNc1nc2c(c(=O)[nH]1)C1(CCCCC1)Cc1ccccc1-2 | 40.3 µM
Cc1c(C)n(C)c2ccc(C(=O)Nc3cccc4ccccc34)cc12 | > 100 µM (inactive)
Cc1noc(NS(=O)(=O)c2ccc(NC(=O)Nc3ccc(Cl)c(Cl)c3)cc2)c1C | 43.1 µM
CC(=O)N1CCN(c2cc(N3CCc4ccccc4C3)c(F)cc2[N+](=O)[O-])CC1 | 9.9 µM
CN(/N=C/c1ccc([N+](=O)[O-])o1)c1ccccc1 | 32.7 µM
O=C(Nc1ccc(N2CCN(C(=O)c3ccccc3F)CC2)cc1)c1cncc(Br)c1 | 41.3 µM
CNC(=O)c1ccsc1NC(=O)c1ccc(Cl)s1 | 64.7 µM
COc1cc(Br)cc(/C=C/c2ccc3cccc(O)c3n2)c1O | 47.2 µM
O=S(=O)(c1ccc(N2CCC(c3ccc(Cl)cc3)=N2)cc1)N(CCO)CCO | 20.7 µM
Cc1nc(Nc2ccccc2)sc1-c1ccccc1 | 11.9 µM
CCOC(=O)C1CCN(C(=O)c2oc3ccc4c(c3c2C)C(O)CC2(CCCCC2)O4)CC1 (stereo not given) | 26 µM
Cc1c(Cl)cccc1NC(=O)c1cccc(OC(F)F)c1 | 32.8 µM
CCCc1[nH]c2ccc(C#N)cc2c1CCC | 41.3 µM
COc1cccc(Nc2ncccc2C(=O)Nc2ccccc2)c1 | 31.7 µM
Nc1cccc(Nc2nc(OC(C(F)(F)F)C(F)(F)F)nc(OC(C(F)(F)F)C(F)(F)F)n2)c1 | 39.6 µM
